Source: patent US9642839B2, “Substance having tyrosine kinase inhibitory activity and preparation method and use thereof” (Institute of Radiation Medicine, China Academy of Military …, priority 2013, dated 2017)

What was measured:
MHCC97-H cells = conditions: MHCC97-H s.c. nude mice; 16 mg/kg intraperitoneal, once every 24 h, 6 administrations; by tumor weight
Procedure: (§1) Establishment of tumor-bearing models: Tumor cells were cultured in T75 flasks until achieving a logarithmical growth. The cells were trypsinized and DMEM medium containing 10% fetal bovine serum was added to terminate trypsinization. The cells were washed with PBS twice, and suspended. Cell concentration was adjusted to 5×10^7 cells/ml, and 150 μl cell suspension was injected into the right flank of the mice. After inoculation, the tumors in the nude mice were observed every day, and the mice were grouped when the tumors reached a volume of 100 mm^3. Each nude mouse was numbered, and the tumor size was measured. The data was entered into EXCEL for sorting and thus excluding extreme values. Random numbers were generated corresponding to the number of the mice, and the mice were randomly grouped using these random numbers.
(§2) Administration: intraperitoneal injection was used at doses of 4 mg/kg, 8 mg/kg, and 16 mg/kg, respectively. The vehicle control group was injected with the same volume of DMSO. The mice received treatment once every 24 h, and a total of 6 times of administrations were given. During administration, changes of tumor size (length×width×width/2) were monitored and recorded in a real-time manner, and the results were expressed as mean±standard deviation.

MHCC97-L cells = conditions: MHCC97-L s.c. nude mice; 16 mg/kg intraperitoneal, once every 24 h, 6 administrations; by tumor weight
Procedure: as §1, §2

Cc1ccccc1NS(=O)(=O)c1ccc2c(c1)/C(=C/c1nc3ccccc3[nH]1)C(=O)N2 [Indo 5, 3-(1H-benzimidazol-2-methylene)-5-(2-methylphenylaminosulfo)-2-indolone] was tested, and the Tumor inhibition rate (MHCC97-H cells) was 61% and the Tumor inhibition rate (MHCC97-L cells) was 68%.
